From US8329141B2, “Locoregional internal radionuclide ablation of abnormal tissues” (Board of Regents, The University of Texas System, priority 2004, dated 2012)
“Also recorded” adds a separate entry of the source.

Key:
[1] = up to a 20 mg/kg systemic dose (Kalia; Mohanti et al.); cited from earlier work
[2] = tested on: rat mammary cancer 13762F tumor cells; assay: In vivo tumor growth after intratumoral injection of radiopharmaceuticals (rat mammary cancer model); parameters: species or system Fischer 344 female rats; settings: for tumor growth / tumor development: 0.6 mCi intratumoral on day 10 in 0.1-0.2 ml saline (pH 4.5-6), FIG. 2
Procedure: The radionuclides YCl3, ^111In—Cl, and ^201Tl—Cl were obtained from a local supplier of radioisotopes, Iso-Tex Diagnostics (Friendswood, Tex.). YCl3 obtained from the supplier was in an acidic preparation with a pH of 2-3, and was subsequently diluted in saline to a final pH of about 4-6 before injection. Initial activities of ^111In—Cl and YCl3 were about 200-500 mCi/ml, and dilution were made with preservative-free saline. YIMA was prepared by co-precipitation, as set forth in U.S. Ser. No. 10/724,027. Briefly, 500 μl of FeCl3 (1 mg Fe/ml) was added to 30 μl of ^90Y chloride (20-40 μCi/30 μl), and either 30 μl of NaOH (1.0 N) or 10 μl of NH4OH (20.0%) was added to the solution to reach a pH of about 7.0 to 9.0. Co-precipitated YIMA radiopharmaceutical macroaggregates were then separated from remaining soluble radionuclides by centrifuging the reactions from 1500 RPM to 3000 RPM×5 minutes, and filtered using a Millipore Nylone (size: 0.45 μm, diameter: 13 mm) to isolate the radiopharmaceutical macroaggregates.
The rat model of in vivo tumor growth was generated as follows. On day zero, 100,000 rat mammary cancer 13762F tumor cells were implanted in a volume of 0.15 ml into the right thigh muscle of Fischer 344 female rats weighing approximately 160 grams. […] YIMA was injected in a volume of 0.2 ml on days 3-7 after tumor implantation. Tumor sizes and body weights of the rats were monitored regularly (5 times a week) for several weeks, or until the tumors grew beyond 2.5 cm, at which time the rats were euthanized.

rat breast cancer = settings: systemic injection (Mortimer and Taylor; Moadel et al.); cited from earlier work
[3] = In vivo local sequestration at the injection site by serial scintigrams (intramuscular or intratumoral injection); parameters: species or system Fischer rats; settings: for retention time with free iron / effect of free iron in the injectate on retention / local sequestration: admixture with FeCl3.6H2O; for retention time with free iron: intramuscular or intratumoral injection; for effect of free iron in the injectate on retention / local sequestration: 1 mg Fe in total injectate; for clearance after intramuscular injection: thigh muscle, after only 3 hours, negative control
Procedure: To further study the localization of unsealed radiopharmaceuticals after injection, in vivo imaging studies were carried out comparing ^111In DTPA (In-DTPA) (negative control) and Indium-111-Iron Macroaggregate (^111In-IMA) (positive control) to ^111In—Cl. ^111In emits gamma rays that can be detected using a gamma camera. ^111In-IMA was generated according to methods disclosed in U.S. Ser. No. 10/724,027, incorporated herein by reference. Each radiopharmaceutical was administered by intramuscular injection into the thigh muscle of Fischer rats which weighed approximately 200 grams. Two different doses of ^111In—Cl were administered to the rats, 0.4 and 0.8 mCi in 0.2 ml saline. Distribution of the ^111In—Cl was determined through serial scintigrams. […] In comparison, when ^111In-IMA was administered to rats, consistent retention (84%) of the ^111In-IMA was found 70 hours after administration (FIG. 8). Persistent intramuscular localization of ^111In—Cl was also found in rats for both dose levels of ^111In—Cl, with over 50% of the injected ^111In—Cl remaining in the injection site after three days.
To investigate whether the addition of free iron to radionuclides would increase the locoregional retention of various radionuclides, admixtures of ^67Ga-citrate, YCl3, or ^111In—Cl, were prepared with FeCl3.6H2O at 1-5 mg Fe/ml. Each radionuclide combination/admixture was administered either by intramuscular (IM) injection into the thigh muscle of the left leg (0.1-1.0 mCi) or by intratumoral (IT) injection into a tumor in the right leg (0.4-5.0 mCi) of Fischer rats. Distribution of the radionuclide was determined through serial scintigrams. Whole body images were acquired with a Siemens M-CAM camera using respective photo peaks of Ga-67, Tl-201 (for Y-90), or In-111, and 15-20% windows in photo energy. The typical imaging time was 0.5 to 5 minutes. A respective standard was present in the field of view (0.1-0.5 mCi), and used for image quantification by comparing images with the standard and normalizing the initial injection time as 100%. The Fe content in each combination/admixture was 1 mg in the total injectate.

[4] = intravenous; four days after injection (Kutzner et al.); cited from earlier work
[5] = cited from earlier work
CSF proteins = assay: Binding to CSF proteins (Centrifree filter separation); format: in vitro ADME, human (patients); settings: 0.2, 0.5 or 1 μCi added to diluted CSF, 20 minutes; physiologic range, all concentrations tested
Procedure: To test the hypothesis that local sequestration of ^111In—Cl is due to protein binding, both ^111In—Cl and YCl3 were tested for binding to CSF and serum proteins. Serum proteins were obtained from residual baseline serum and CSF proteins were obtained from patients participating in other research protocols who had consented to blood sampling. To determine the level of ^111In—Cl protein binding, 0.2, 0.5, or 1 μCi of ^111In—Cl was added to diluted CSF (0.125 or 0.5) or diluted serum protein (0.125 and 0.25) and incubated for 20 minutes. To determine the level of YCl3 protein binding, 0.2, 0.5, or 1 μCi of YCl3 was added to diluted CSF (0.063 or 0.5) or diluted serum protein (0.063 and 0.375), and incubated for 20 minutes. After incubation, free radiopharmaceuticals were separated from protein bound ^111In—Cl or YCl3 using Amicon Centrifree Micropartition filters in a single centrifugation step at 3000 g for 15 minutes according to manufacturer's instructions (Amicon, Beverly, Mass.). The percent binding of YCl3 or ^111In—Cl to the CSF or serum protein was then calculated. As shown in FIG. 6 and FIG. 7 respectively, both YCl3 and ^111In—Cl bind avidly to CSF and serum protein within the physiologic range (a dilution factor between 0.2 and 0.6) at all concentrations tested. At room temperature, both YCl3 and ^111In—Cl have greater than 95% binding to serum proteins.

serum proteins = assay: Binding to serum proteins (Centrifree filter separation); format: in vitro ADME, human (patients); settings: 0.2, 0.5 or 1 μCi added to diluted serum protein, 20 minutes; physiologic range, all concentrations tested
Procedure: To test the hypothesis that local sequestration of ^111In—Cl is due to protein binding, both ^111In—Cl and YCl3 were tested for binding to CSF and serum proteins. Serum proteins were obtained from residual baseline serum and CSF proteins were obtained from patients participating in other research protocols who had consented to blood sampling. To determine the level of ^111In—Cl protein binding, 0.2, 0.5, or 1 μCi of ^111In—Cl was added to diluted CSF (0.125 or 0.5) or diluted serum protein (0.125 and 0.25) and incubated for 20 minutes. To determine the level of YCl3 protein binding, 0.2, 0.5, or 1 μCi of YCl3 was added to diluted CSF (0.063 or 0.5) or diluted serum protein (0.063 and 0.375), and incubated for 20 minutes. After incubation, free radiopharmaceuticals were separated from protein bound ^111In—Cl or YCl3 using Amicon Centrifree Micropartition filters in a single centrifugation step at 3000 g for 15 minutes according to manufacturer's instructions (Amicon, Beverly, Mass.). The percent binding of YCl3 or ^111In—Cl to the CSF or serum protein was then calculated. As shown in FIG. 6 and FIG. 7 respectively, both YCl3 and ^111In—Cl bind avidly to CSF and serum protein within the physiologic range (a dilution factor between 0.2 and 0.6) at all concentrations tested. At room temperature, both YCl3 and ^111In—Cl have greater than 95% binding to serum proteins. […]

[6] = Biodistribution and projected human radiation dosimetry after intravenous or intramuscular injection; format: in vivo, female Fisher rats; settings: for human dosimetry estimate, kidney / human dosimetry estimate, red marrow: from rat biodistribution
Procedure: To evaluate the radiation toxicity of YCl3 after intravenous or intramuscular injection, parallel experiments were performed to evaluate the biodistribution and projected human radiation dosimetry of both ^111In—Cl and YCl3. The experiments used three female Fisher rats (140-160 grams) for each set of injections. Each rat was injected intravenously, or was injected intramuscularly in the right thigh, with 0.05 mCi of YCl3 or ^111In—Cl (with no carrier added) in 0.1 ml saline (pH 5-6). The effect of initial exposure of the radiopharmaceuticals to interstitial fluid was estimated by serum protein binding experiments using Millipore Centrifree filters as set forth in Example 2. Organs including the right and left femur, as well as the right and left thigh muscles, were harvested from each rat 7 days after injection. Human dosimetry for each radiopharmaceutical was constructed using established anthropomorphic models.

human cancer cell lines = settings: a number of human cancer cell lines; cited from earlier work
[7] = FIG. 4, in 0.5 ml saline, YCl3 0.5, 1.0, 2.0 mCi, ^111In—Cl 1.0, 4.0 mCi, FDG 1.0, 2.0, 3.0 mCi, ^67Ga—Fe 1.77 mCi

## O=CC[C@@H](O)[C@H](O)[C@H](O)CO [2DG, 2-deoxy-D-glucose]
[1]
  enhancement of the effects of a radiopharmaceutical: effective in enhancing the effects of a radiopharmaceutical

## OC[C@H]1OC(O)[C@H]([18F])[C@@H](O)[C@@H]1O (stereo partly drawn) [FDG, F-18-2-deoxy-2-fluoro-D-glucose, reference compound]
[2]; [7]
  tumor growth: YCl3 appeared to be the only radiopharmaceutical that significantly suppressed tumor growth
Rat breast cancer
  induction of apoptosis: sufficient to induce apoptosis

## O=C([O-])CC(O)(CC(=O)[O-])C(=O)[O-].[67Ga+3] [^67Ga citrate, Gallium 67 citrate, reference compound]
[3]
  retention time with free iron: Increase in the retention time
[3]; intramuscular injection, without free iron
  retention in the injection site: comparatively short time

## [Cl][Ga]([Cl])[Cl] [^67Ga—Cl, Gallium 67 chloride]
[3]
  retention time with free iron: Increase in the retention time

## [90Y] [^90Y, Yttrium-90]
[4]
  injected amount present in the bones: 50%-80%
[5]; by ICRP-30
  radiation toxicity in red bone marrow: 15-18 cGy/mCi
[5]; derived from distribution of Yttrium-86 citrate in human PET studies (Herzog et al.)
  red marrow dose: 4-6 cGy/mCi

## [Cl][111In]([Cl])[Cl] [^111In—Cl, Indium-111 chloride]
[2]
  tumor growth / tumor development: not suppressed; also recorded: not reduced; also recorded: did not suppress tumor development
[2]; FIG. 3, in 0.2-0.3 ml saline, YCl3 0.3, 0.6, 1.5 mCi, ^111In—Cl 0.6, 1.2, 2.4, 4.8 mCi, ^67Ga 0.6 mCi
  tumor growth: YCl3 appeared to be the only radiopharmaceutical that significantly suppressed tumor growth
[2]; [7]
  tumor growth: YCl3 appeared to be the only radiopharmaceutical that significantly suppressed tumor growth
[2]; FIG. 5, in 1.0 ml saline, ^111In—Cl 2.2 mCi, ^188Re EDTA 1.5 mCi with or without free iron
  tumor growth: strong tumor suppression
[2]; injection volume increased from 0.2-0.3 ml and 0.5 ml to 1.0 ml, therapeutic dosage not increased
  change in tumor suppression with injection volume: dramatic increase in tumor suppression
CSF proteins
  binding to CSF: bind avidly
Serum proteins
  binding to serum protein: bind avidly
[3]
  retention time with free iron: Increase in the retention time
[3]; intramuscular injection
  effect of free iron in the injectate on retention / local sequestration: does not appear to dramatically affect
[3]; intramuscular, 0.4 and 0.8 mCi in 0.2 ml saline (both dose levels), after three days
  injected radiopharmaceutical remaining in the injection site: over 50%
[3]; intramuscular, acidic solution (pH 3.0) vs basic solution (pH 8.0), FIG. 9
  effect of pH of the injectate on local sequestration: does not appear to dramatically affect
[3]; intratumoral injection
  effect of free iron in the injectate on retention / local sequestration: does appear to increase
[6]; estimated from the left femur (opposite to the injection site)
  skeletal distribution: about 16%
[6]; intramuscular injection in right thigh
  radiation uptake in the right thigh muscle: high
[6]; intramuscular injection in right thigh, decreasing over time to
  radiation uptake in right femur versus contralateral organ: 3 times higher
[6]; intramuscular injection in right thigh, initial
  radiation uptake in right femur versus contralateral organ: 6 times higher
[6]; intramuscular
  human dosimetry estimate, kidney: 1.13 cGy/mCi
  human dosimetry estimate, red marrow: 0.55 cGy/mCi
[6]; intravenous injection, 0.05 mCi in 0.1 ml saline
  organs with the highest uptake: spleen, liver, and kidney
[6]; intravenous
  human dosimetry estimate, kidney: 10.4 cGy/mCi
  human dosimetry estimate, red marrow: 4.01 cGy/mCi

## [O]=[188Re](=[O])(=[O])[O-] [^188Re perrhenate, reference compound]
[3]; intratumoral injection, without free iron, FIG. 16
  clearance from the injection site: rapidly cleared
[3]; intratumoral injection
  effect of free iron in the injectate on retention / local sequestration: did not slow down the clearance

## [Cl][201Tl] [^201Tl—Cl, Thallium-201 chloride, reference compound]
[2]
  tumor growth / tumor development: not reduced
[3]; intratumoral injection
  effect of free iron in the injectate on retention / local sequestration: did not dramatically slow down clearance

## Rhodamine-123 [Rh-123]
Human cancer cell lines
  toxicity to cancer cell lines: selectively toxic

## ^111In DTPA [^111In-DTPA, reference compound]
[3]; intramuscular
  clearance after intramuscular injection: rapidly cleared
[3]; intramuscular, listed as In-DTPA
  clearance after intramuscular injection: rapid clearance
